Results on 4 compounds are retold here after US5436263A, “Inhibitors of farnesyl-protein transferase” (Merck & Co., Inc., priority 1994, dated 1995).

SMILES strings stand for the structures.

The target in one assay is T1, human FPTase (Homo sapiens, UniProt P49354+P49356).
T1 construct: made in house
Description: In vitro inhibition of Ras farnesyl-protein transferase, human FPTase. It counts as biochemical. The settings on record: 100 nM Ras-CVIM, 0.1% PEG 20,000, 10 μM ZnCl2, 30 min, concentration giving 50% inhibition of FPTase, read-out: Inhibition of RAS farnesylation IC50, human. The protocol: Inhibitory activity of the compounds of the instant invention may also be measured with an assay employing the recombinant human FPTase obtained as described by C. A. Omer et al. (Biochemistry, 32:5167-5176 (1993)).
Assays of farnesyl-protein transferase. Partially purified bovine FPTase and Ras peptides (Ras-CVLS, Ras-CVIM and RAS-CAIL) were prepared as described by Schaber et al. J. Biol. Chem. 265:14701-14704 (1990) and Gibbs et al. PNAS U.S.A. 86:6630-6634 (1989), respectively. Bovine FPTase was assayed in a volume of […] containing 100 mM N-(2-hydroxy ethyl) piperazine-N'-(2-ethane sulfonic acid) (HEPES), pH 7.4, 5 mM MgCl2, 5 mM dithiothreitol (DTT), […] [^3 H]-farnesyl diphosphate ([^3 H]-FPP; 740 CBq/mmol, New England Nuclear), 650 nM Ras-CVLS and 10 μg/ml FPTase at 31° C. for 60 min. Reactions were initiated with FPTase and stopped with 1 ml of 1.0M HCL in ethanol. Precipitates were collected onto filter-mats using a TomTec Mach H cell harvestor, washed with 100% ethanol, dried and counted in an LKB β-plate counter. The assay was linear with respect to both substrates, FPTase levels and time; less than 10 % of the [^3 H]-FPP was utilized during the reaction period. […] Percentage inhibition is measured by the amount of incorporation of farnesyl in the presence of the test compound when compared to the amount of incorporation in the absence of the test compound. […]

Another assay deals with T2, bovine FPTase (Bos taurus, UniProt P29702+P49355).
T2 construct: Farnesyl-protein transferase (FPTase) from bovine brain; from tissue; host or cells: bovine brain
Description: In vitro inhibition of Ras farnesyl-protein transferase, partially purified bovine FPTase. The format is biochemical. The settings on record: Ras-CVLS substrate, [3H]-FPP, pH 7.4, 31° C., 60 min, concentration giving 50% inhibition of FPTase, read-out: Inhibition of RAS farnesylation IC50, bovine. The protocol:
The intrinsic farnesyl-protein transferase (FPTase) activity of representative compounds of this invention was measured by the assay as described below:
Farnesyl-protein transferase (FPTase) from bovine brain was chromatographed on DEAE-Sephacel (Pharmacia, 0-0.8M NaCl gradient elution), N-octyl agarose (Sigma, 0-0.6M NaCl gradient elution), and a mono Q HPLC column (Pharmacia, 0-0.3M NaCl gradient). Ras-CVLS (Cys-Val-Leu-Ser) at 3.5 mM, […] [^3 H]FPP, and the indicated compounds were incubated with this partially purified enzyme preparation. The FPTase inhibition data presented below is a measurement of the ability of the test compound to inhibit Ras farnesylation in vitro.
Assays of farnesyl-protein transferase. Partially purified bovine FPTase and Ras peptides (Ras-CVLS, Ras-CVIM and RAS-CAIL) were prepared as described by Schaber et al. J. Biol. Chem. 265:14701-14704 (1990) and Gibbs et al. PNAS U.S.A. 86:6630-6634 (1989), respectively. […] Precipitates were collected onto filter-mats using a TomTec Mach H cell harvestor, washed with 100% ethanol, dried and counted in an LKB β-plate counter. […] Percentage inhibition is measured by the amount of incorporation of farnesyl in the presence of the test compound when compared to the amount of incorporation in the absence of the test compound.

The subject of another assay is Ras farnesylation. The note with it: HMG-CoA reductase inhibitors, Hancock et al., Casey et al., Schafer et al.; cited from earlier work.

As usually defined, the IC50 is the point on the concentration scale where inhibition reaches its midpoint. On to `COC(=O)C1=CC(CO)=COc2oc3cccc(O)c3c(=O)c21` [Compound 1, 7-hydroxy-3-(hydroxymethyl)-6-oxo-6H-oxepino[2,3-b][1]benzopyran-5-carboxylic acid methyl ester], for which the IC50 at human FPTase was determined as 2.7 µM; on bovine FPTase, 0.3 µM.
For `COC(=O)C1=CC(COC(C)=O)=COc2oc3cccc(OC(C)=O)c3c(=O)c21` [Compound 2, 7-acetyloxy-3-[(acetyloxy)methyl]-6-oxo-6H-oxepino[2,3-b][1]benzopyran-5-carboxylic acid methyl ester], the half-inhibitory concentration (IC50) at bovine FPTase came to 1 µM.
`CC[C@H](C)C(=O)O[C@H]1CCC=C2C=C[C@H](C)[C@H](CC[C@@H]3C[C@@H](O)CC(=O)O3)[C@H]21` [compactin]: the “Inhibition of Ras farnesylation in vivo” value in the assay with Ras farnesylation was “Inhibition of Ras farnesylation in vivo has been demonstrated”.
Regarding `CC[C@H](C)C(=O)O[C@H]1C[C@@H](C)C=C2C=C[C@H](C)[C@H](CC[C@@H]3C[C@@H](O)CC(=O)O3)[C@H]21` [lovastatin], the “Inhibition of Ras farnesylation in vivo” value in the assay on Ras farnesylation is “Inhibition of Ras farnesylation in vivo has been demonstrated”.
